Laboratory results taken from US20230277483A1, “COMPOSITIONS AND METHODS TO TREAT INFLAMMATION” (University of Iowa Research Foundation, priority 2022, published 2023).

How the values were obtained:
[1] = tested on: S. oralis (So, ATCC 35037); assay: Bacterial proliferation measured by OD600; type: cell-based, Streptococcus oralis; conditions: HCA at 0.1 μM; aerobic culture
Description: Sg metabolites promote commensal bacterial proliferation and inhibit periodontopathogenic bacterial proliferation and colonization. Commensal bacteria, Sg, S. sanguinis (Ss, ATCC10556), S. mitis (Sm, ATCC49456) and S. oralis (So, ATCC 35037) were cultured in BHI medium. In addition, pathogenic bacteria, Pg was cultured using BHI and Tf (ATCC43037), and Td (ATCC 35405) were grown in Thioglycollate medium with vitamin K and Hemin in 90% N2, 5% H2, 5% CO2. The Sg metabolites were diluted using DMEM and added to the bacteria with the similar OD600 value. The same amount of DMEM was used as a control. During the exponential growth of bacteria, the OD600 value was measured to determine the proliferation. […] In addition, to determine the function of Sg metabolites on Pg colonization, Pg were inoculated in 24-well plates containing BHI or BHI supplemented with DMEM or Sg metabolites. […]
HCA promotes proliferation of health related bacteria and inhibits proliferation and attachment of periodontopathogenic bacteria. […] The composition of the microbiomes was determined by amplifying the V3 and V4 regions of the 16S rRNA genes. Raw data in FASTQ format were filtered and denoised using DADA2 (Divisive Amplicon Denoising Algorithm) to generate amplicon sequence variants (ASV) or operational taxonomical units (OTUs) that were then analyzed by QIIME2.

[2] = tested on: human monocyte-derived macrophages (MDM); assay: MTT toxicity assay; type: cell-based; conditions: HCA from 0.1 to 50 μM; 24 and 48 hours
Description: HCA promotes proliferation of health related bacteria and inhibits proliferation and attachment of periodontopathogenic bacteria. Promoting the growth of health-related commensal bacteria while inhibiting proliferation and attachment of pathogenic bacteria may be effective at preventing or treating periodontal inflammation. To determine if HCA has an effect on the growth properties of commensal bacteria and periodontopathogens, HCA at different concentrations was added to aerobic culture of S. mitis and S. oralis and anaerobic culture of T. denticola as described in our published manuscript (see detail in Shu et al, Journal of Periodontology, 2022). FIGS. 18A-C summarize the functions of HCA on the proliferation of specific commensal and pathogenic bacteria. […] Furthermore, the function of HCA on P. gingivalis attachment, a key parameter of adhesion and biofilm formation by periodontopathogenic bacteria, was investigated. […] The composition of the microbiomes was determined by amplifying the V3 and V4 regions of the 16S rRNA genes. Raw data in FASTQ format were filtered and denoised using DADA2 (Divisive Amplicon Denoising Algorithm) to generate amplicon sequence variants (ASV) or operational taxonomical units (OTUs) that were then analyzed by QIIME2.

[3] = tested on: primary human gingival fibroblasts (HGF); assay: MTT toxicity assay; type: cell-based; conditions: HCA from 0.1 to 50 μM; 24 and 48 hours
HGF = assay: Anti-inflammatory miR expression after Pg-LPS challenge; type: cell-based, human; conditions: 24 hours after Pg-LPS challenge
Description: FIGS. 11A-11B. Sg metabolites upregulate anti-inflammatory miRs in human macrophages and HGF. A-B: Relative transcript changes of miR-200c, 146a, and 21 in HGF (A) and human MDM (B) treated with AICAR, MA, HCA, and HPLA 24 hours after Pg-LPS challenge; performed in duplicate.

C57BL/6J mice = assay: Pg-LPS gingival injection mouse model of periodontal inflammation; type: in vivo; conditions: 100 μl of HCA at 0.5 μM I.P. three times a week, 3 weeks

SMILES: O=C(O)CCCCCO [HCA, 6-hydroxycaproic acid]
- proliferation of S. oralis [1]: improve proliferation
- toxicity (MTT assay) [2]: No toxicity
- toxicity (MTT assay) [3]: No toxicity
- anti-inflammatory miRs (miR-200c, 146a, and 21) (HGF): upregulate
- serum IL-1β production (ELISA) (C57BL/6J mice): significantly reduced
- gingival IL-1β expression (qRT-PCR) (C57BL/6J mice; Pg-LPS twice a week): suppressing gingival IL-1β expression
